Source: PMC5522996, “Big conductance calcium‐activated potassium channel openers control spasticity without sedation” (British Journal of Pharmacology, 2017)
Like-named read-outs stand apart in the source and are kept apart here.

Tests used:
CYP450 2A6 = CYP450 2A6 (Homo sapiens, UniProt P11509); experiment: CYP450 inhibition of substrate binding
Source text: IC50 Inhibition of substrate binding
(§3) Inhibition of binding of either 3-cyano-7-ethoxycoumarin, dibenzylfluorescein or 7-benzyoxy-4-
(§4) (trifluoromethyl) coumarin in human enzyme transfected BTI NN-5B1-4 cells or Sf9 insect cells or
(§5) inhibition of dextromethorphan substrate to CYP450 2D6 in liver microsomes.

CYP450 2B6 = CYP450 2B6 (Homo sapiens, UniProt P20813)
Source text: IC50 Inhibition of substrate binding
as §3, §4, §5

mouse vas deferens = experiment: Electrically‐evoked contraction of the mouse vas deferens; type: cell-based
Method: Vasa deferentia were obtained from outbred MF‐1 mice and mounted vertically in a 4 mL organ bath at an initial tension of 0.5 g. The baths contained Mg^2+‐free Krebs solution (NaCl 118.2 mM, KCl 4.75 mM, KH2PO4 1.19 mM, NaHCO3 25.0 mM, glucose 11.0 mM and CaCl2·6H2O 2.54 mM), which was kept at 35–36°C and bubbled with 95% O2 and 5% CO2. […] Contractions were monitored by a computer using a data recording and analysis system as described previously (Ross et al., 2001). After placement in an organ bath, each tissue was subjected to a stimulation‐free period of 10 min and then stimulated for 10 min. Tissues were then subjected to alternate periods of stimulation (5 min) and rest (10 min) until consistent twitch amplitudes were obtained. This equilibration procedure was followed by a stimulation‐free period of 25 min. Tissues were then stimulated for 5 min after which the first agonist addition was made and stimulation continued until the end of the experiment.

rat mesenteric artery [1] = test system: rat mesenteric artery; parameters: method as in Hoi et al., 2007; conditions: ref Hoi et al., 2007; read-out: EC50, vasorelaxation of rat mesenteric arteries; cited from earlier work
[2] = test system: spastic ABH mice with EAE; experiment: Spasticity: resistance to hindlimb flexion against a strain gauge; conditions: 5 mg·kg^−1 i.v.
BKCa channel = target: T1, BKCa channel (Homo sapiens, UniProt Q12791+Q86W47); experiment: Single‐channel inside‐out patch clamp, EA.hy926 cells; type: cell-based; conditions: 3 μM, inner surface of membrane, 40 mV, 0.3 μM free Ca^2+
T1 construct: host or cells: EA.hy926 endothelial cells
T1 sequence (Q12791 whole entry): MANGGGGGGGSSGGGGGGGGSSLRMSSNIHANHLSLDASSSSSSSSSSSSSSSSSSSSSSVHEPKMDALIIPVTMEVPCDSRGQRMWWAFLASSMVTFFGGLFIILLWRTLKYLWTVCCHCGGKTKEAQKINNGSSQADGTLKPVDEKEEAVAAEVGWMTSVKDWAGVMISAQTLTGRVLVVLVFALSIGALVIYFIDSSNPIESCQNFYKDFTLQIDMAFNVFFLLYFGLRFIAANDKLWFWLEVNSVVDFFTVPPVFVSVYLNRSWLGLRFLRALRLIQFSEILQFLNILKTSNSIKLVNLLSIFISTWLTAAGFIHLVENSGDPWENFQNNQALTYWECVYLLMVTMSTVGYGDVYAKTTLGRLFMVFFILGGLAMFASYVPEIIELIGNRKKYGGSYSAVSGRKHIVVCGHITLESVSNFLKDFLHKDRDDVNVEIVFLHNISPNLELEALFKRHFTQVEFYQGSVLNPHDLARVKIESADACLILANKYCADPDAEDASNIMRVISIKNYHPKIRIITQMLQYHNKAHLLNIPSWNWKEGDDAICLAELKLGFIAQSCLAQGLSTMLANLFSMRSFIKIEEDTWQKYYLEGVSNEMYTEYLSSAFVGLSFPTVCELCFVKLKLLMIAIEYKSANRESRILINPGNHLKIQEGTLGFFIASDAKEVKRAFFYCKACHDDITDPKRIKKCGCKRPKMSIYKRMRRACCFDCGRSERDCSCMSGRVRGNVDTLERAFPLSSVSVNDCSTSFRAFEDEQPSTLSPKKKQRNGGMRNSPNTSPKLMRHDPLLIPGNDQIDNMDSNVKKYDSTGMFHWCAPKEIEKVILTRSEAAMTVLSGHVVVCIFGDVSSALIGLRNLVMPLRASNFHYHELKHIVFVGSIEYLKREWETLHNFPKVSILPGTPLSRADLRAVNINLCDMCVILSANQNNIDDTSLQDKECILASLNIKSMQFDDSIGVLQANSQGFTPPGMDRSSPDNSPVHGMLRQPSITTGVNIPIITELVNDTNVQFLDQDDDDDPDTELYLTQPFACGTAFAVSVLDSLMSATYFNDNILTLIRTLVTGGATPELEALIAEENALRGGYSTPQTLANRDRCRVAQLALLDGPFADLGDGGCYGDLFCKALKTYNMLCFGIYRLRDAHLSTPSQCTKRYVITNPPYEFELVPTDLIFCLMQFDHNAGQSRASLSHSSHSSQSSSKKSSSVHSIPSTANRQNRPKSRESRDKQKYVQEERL
T1 sequence (Q86W47 whole entry): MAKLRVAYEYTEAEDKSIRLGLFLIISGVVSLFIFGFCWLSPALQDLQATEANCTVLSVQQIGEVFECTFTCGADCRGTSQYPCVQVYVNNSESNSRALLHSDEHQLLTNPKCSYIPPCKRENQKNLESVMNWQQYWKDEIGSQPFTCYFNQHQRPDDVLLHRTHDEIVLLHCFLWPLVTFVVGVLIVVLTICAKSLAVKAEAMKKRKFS
Method: The human EA.hy926 endothelial cells (ATCC, Manassas, USA) were grown in DMEM containing 10% FCS and 1% HAT (5 mM hypoxanthine, 20 μM aminopterin and 0.8 mM thymidine) and were maintained in an incubator at 37°C in 5% CO2 atmosphere (Bondarenko et al., 2013). Human HNC‐2 neuronal cells were obtained from ATCC. For experiments, cells were plated on glass coverslips. Single‐channel recordings were obtained from excised inside‐out membrane patches in symmetrical solutions using the patch‐clamp technique. All patch‐clamp experiments were performed at room temperature with the use of a water hydraulic micromanipulator (WR‐6, Narishige, Japan). […] The pipettes were filled with 140 mM KCl, 10 mM HEPES, 1 mM MgCl2, 5 mM EGTA and […] CaCl2 buffered to pH 7.2 by adding KOH. Cells were super‐perfused with a bath solution containing 140 mM NaCl, 5 mM KCl, 1.2 mM MgCl2, 10 mM HEPES, 10 mM glucose and 2.4 mM CaCl2. Following gigaseal formation, bath solution was switched to the following: 140 mM KCl, 10 mM HEPES, 1 mM MgCl2, 5 mM EGTA and a designated free Ca^2+ concentration, which was adjusted by adding different amounts of CaCl2 buffered to pH 7.2. (Bondarenko et al., 2011; Bondarenko et al., 2013). Single‐channel activity was expressed as NPo, where N represents the number of functional ion channels in the membrane patch and Po represents the open channel probability determined from idealized traces (Bondarenko et al., 2011). NPo was obtained from ≥20 s of continuous recording under each experimental condition. The effect of VSN16R was estimated after 3 min of continuous exposure to VSN16R‐containing solution. Data were analysed by ANOVA, and statistical significance was evaluated using Scheffés post hoc test of the Prism 5 software for Windows (GraphPad Software).

[3] = Plasma, brain and spinal cord levels in ABH mice with spastic EAE; type: in vivo, mouse; conditions: after 5 mg·kg^−1 p.o. VSN16R, ABH mice with spastic EAE
Method: (§1) The stability of compounds when subjected to hepatic and plasma degradation was assessed in vitro by Inpharmatica, Cambridge, UK. Compounds (1 μM) were incubated with either pooled mouse liver microsomes (0.1 mg protein mL^−1) or pooled mouse plasma at 37°C for 0, 5, 10, 20 and 40 min before termination with acetonitrile containing warfarin as an analytical internal standard. Samples were centrifuged, and the resultant supernatant analysed for parent compound. The mass responses at baseline were taken as the 100% reference values against which the disappearance of the compound was measured. The natural log of the % remaining values was used to generate linear plots of disappearance of the compounds. Half‐life values were calculated from the slope of these plots. Hepatocyte metabolism was assessed by Cyprotex, Macclesfield, and 10 μM VSN16R was incubated with primary mouse, rat, monkey (Macaque) and human hepatocytes for 1 h, and the presence of metabolites was assessed using liquid […] mass spectroscopy. The stability of VSN16R was assessed in vivo by Inpharmatica, Cyprotex and Charles Rivers, Cambridge. Blood (plasma) samples were obtained prior to and 5 min to 24 h after drug administration of 2–5 mg·kg^−1 i.v. or 5 mg·kg^−1 p.o. VSN16R into outbred mice and rats (n = 3 per time point). In addition, plasma, brain and spinal cord samples were obtained from ABH with spastic EAE. Immediately after blood collection, the brain and spinal cord were removed and then stored at −20°C prior to assay. Tissue samples were weighed, homogenized and centrifuged, and the lysates generated. Brain lysates and plasma were assayed by LC–MS methods by Inpharmatica/Charles Rivers, Cambridge, UK. This was also performed using a Waters Xevo TQ or API4000, AB Sciex mass spectrometer using spiked samples as standards. PK Solutions Software (Summit Research Services, Montrose, CO, USA), AB Sciex Analyst software combined with Thermo Fisher Scientific Watson LIMS processing and reporting software or WinNonLin pharmacokinetic or PK solutions 2.0 software (Summit Research Services, Montrose CO, USA) were used to produce PK parameters. Data are expressed as mean ± SEM. The detection limit of VSN16R was 2 ng·mL^−1 in plasma and brain and 14 ng·mL^−1 in spinal cords. The detection limit of VSN22R was 2 ng·mL^−1 in plasma and 0.1 ng·mL^−1 for VSN44R in plasma. Pharmacokinetics in toxicological samples in rats (n = 6 per group), dogs (n = 6 per group) and humans (n = 6 per group) were performed by Charles Rivers (Edinburgh, UK).

[4] = Phase I pharmacokinetics in healthy humans; type: in vivo, human; conditions: male, human, plasma, oral; twice daily dosing of VSN16R; read-out: Steady‐state plasma levels
Method: as §1, with “cords.” for “cords. The detection limit of VSN22R was 2 ng·mL^−1 in plasma and 0.1 ng·mL^−1 for VSN44R in plasma. Pharmacokinetics in toxicological samples in rats (n = 6 per group), dogs (n = 6 per group) and humans (n = 6 per group) were performed by Charles Rivers (Edinburgh, UK).”

[5] = Stability in pooled mouse plasma; type: in vitro ADME; conditions: 37°C, upper limit 100 min, read-out: t ½ in plasma
Method: (§2) The stability of compounds when subjected to hepatic and plasma degradation was assessed in vitro by Inpharmatica, Cambridge, UK. Compounds (1 μM) were incubated with either pooled mouse liver microsomes (0.1 mg protein mL^−1) or pooled mouse plasma at 37°C for 0, 5, 10, 20 and 40 min before termination with acetonitrile containing warfarin as an analytical internal standard. Samples were centrifuged, and the resultant supernatant analysed for parent compound. The mass responses at baseline were taken as the 100% reference values against which the disappearance of the compound was measured. The natural log of the % remaining values was used to generate linear plots of disappearance of the compounds. Half‐life values were calculated from the slope of these plots. Hepatocyte metabolism was assessed by Cyprotex, Macclesfield, and 10 μM VSN16R was incubated with primary mouse, rat, monkey (Macaque) and human hepatocytes for 1 h, and the presence of metabolites was assessed using liquid […] mass spectroscopy. The stability of VSN16R was assessed in vivo by Inpharmatica, Cyprotex and Charles Rivers, Cambridge. Blood (plasma) samples were obtained prior to and 5 min to 24 h after drug administration of 2–5 mg·kg^−1 i.v. or 5 mg·kg^−1 p.o. VSN16R into outbred mice and rats (n = 3 per time point). […] Data are expressed as mean ± SEM. […]

BKCa channels = test system: BKCa channels; parameters: method as in Denson DD et al. Brain Res 638:61; conditions: ref Denson DD et al. Brain Res 638:61; read-out: EC50, inhibition of inside-out current of BKCa channels; cited from earlier work
rat mesenteric artery [6] = experiment: Methoxamine‐evoked contraction of rat mesenteric artery; type: cell-based; conditions: 200 µM
Method: Vessels were equilibrated and set to a basal tension of 2 to 2.5 mN. The integrity of the endothelium was assessed by pre‐contracting the vessel with 10 μM methoxamine (an α1‐adrenoceptor agonist), followed by relaxation with 10 μM carbachol (a muscarinic acetylcholine receptor agonist); vessels showing relaxations of greater than 90% were designated as endothelium‐intact. When the endothelium was not required, it was removed by rubbing the intima with a human hair; carbachol‐induced relaxation of less than 10% indicated successful removal. After the test for endothelial integrity, vessels were left for 30 min and then pre‐contracted with 10 μM methoxamine. This was followed by construction of a cumulative concentration–relaxation curve to VSN16R (10 nM–1 μM). […] Most experiments were performed in matched vessels; effects of blockers or endothelial removal were compared with the control responses obtained in separate vessels of the same rats. All relaxant responses are expressed as percentage relaxation of the tone induced by methoxamine. Values are given as mean ± SEM. Statistical comparisons of concentration‐dependent responses were made by two‐way ANOVA using Prism 4 (GraphPad Software, Inc, San Diego, CA, USA).

[7] = Stability in pooled mouse liver microsomes; type: in vitro ADME; conditions: microsomes, 37°C, upper limit 100 min, read-out: t ½ in liver microsomes
Method: as §2

[8] = Mus musculus, read-out: EC50, inhibition of electrically‐evoked contraction

CYP450 2B6, sequence (P20813 whole entry): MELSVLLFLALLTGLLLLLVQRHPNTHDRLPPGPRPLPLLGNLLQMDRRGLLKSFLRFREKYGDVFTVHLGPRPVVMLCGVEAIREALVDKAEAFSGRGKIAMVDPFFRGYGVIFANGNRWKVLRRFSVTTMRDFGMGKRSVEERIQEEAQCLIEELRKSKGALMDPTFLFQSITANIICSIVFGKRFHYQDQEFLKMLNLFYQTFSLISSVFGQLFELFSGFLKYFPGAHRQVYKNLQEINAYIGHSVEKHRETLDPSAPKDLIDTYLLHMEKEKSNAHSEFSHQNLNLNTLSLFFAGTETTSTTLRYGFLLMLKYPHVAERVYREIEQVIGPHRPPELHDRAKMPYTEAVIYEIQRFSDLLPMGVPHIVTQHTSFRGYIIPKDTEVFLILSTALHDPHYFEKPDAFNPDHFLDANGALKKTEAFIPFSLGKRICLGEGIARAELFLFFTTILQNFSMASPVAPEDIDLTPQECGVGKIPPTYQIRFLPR
CYP450 2A6, sequence (P11509 whole entry): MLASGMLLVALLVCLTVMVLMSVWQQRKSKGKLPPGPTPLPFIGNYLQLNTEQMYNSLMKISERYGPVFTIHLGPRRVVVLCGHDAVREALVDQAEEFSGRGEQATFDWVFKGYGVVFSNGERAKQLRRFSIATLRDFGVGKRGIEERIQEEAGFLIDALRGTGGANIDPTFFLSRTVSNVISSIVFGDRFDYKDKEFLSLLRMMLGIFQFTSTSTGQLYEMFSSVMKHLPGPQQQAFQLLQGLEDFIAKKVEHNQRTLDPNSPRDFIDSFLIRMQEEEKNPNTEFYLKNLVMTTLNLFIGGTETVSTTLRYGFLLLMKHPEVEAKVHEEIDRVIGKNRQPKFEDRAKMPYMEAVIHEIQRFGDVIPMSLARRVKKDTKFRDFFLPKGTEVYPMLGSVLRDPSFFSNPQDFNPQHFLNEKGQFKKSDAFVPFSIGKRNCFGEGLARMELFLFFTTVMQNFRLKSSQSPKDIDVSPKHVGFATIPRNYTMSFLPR

N[C@@H]1C[C@H]1c1ccccc1 (racemic) [Tranylcypromine, reference compound]
EC50 (CYP450 2A6): 200 nM

CC(=O)N1CCN(c2ccc(OCC3COC(Cn4ccnc4)(c4ccc(Cl)cc4Cl)O3)cc2)CC1 (centres unmarked) [Ketoconazole, reference compound]
EC50 (CYP450 2B6): 2900 nM

C[C@@H](CO)NC(=O)c1cccc(/C=C\CCCC(=O)N(C)C)c1 [VSN16S]
EC50 (mouse vas deferens; [8]): 37 nM | EC50 (rat mesenteric artery [1]): 140 nM

CNC(=O)CCC/C=C\c1cccc(C(=O)N[C@H](C)CO)c1 [VSN22R, (R,Z)‐N‐(1‐hydroxypropan‐2‐yl)‐3‐(6‐(methylamino)‐6‐oxohex‐1‐en‐1‐yl)benzamide]
Inhibition of spasticity [2]: could inhibit the spasticity | EC50 (mouse vas deferens; [8]): 9 nM | Single BKCa channel activity (BKCa channel): facilitated single BKCa channel activity | Plasma level of the named species [3]: 106 ± 6.1 ng/mL | concentration at 1 week [4]: > 100 nM

C[C@@H](NC(=O)c1cccc(/C=C\CCCC(=O)N(C)C)c1)C(=O)O [VSN44R, (Z)‐(3‐(6‐(dimethylamino)‐6‐oxohex‐1‐en‐1‐yl)benzoyl)‐D‐alanine]
Inhibition of spasticity [2]: could inhibit the spasticity | EC50 (mouse vas deferens; Mus musculus; read-out: EC50, inhibition of electrically‐evoked contraction): 1 nM | Single BKCa channel activity (BKCa channel): facilitated single BKCa channel activity | Plasma level of the named species [3]: 2.1 ± 0.3 ng/mL

CC(=O)Oc1ccc(C(c2ccc(OC(C)=O)cc2)c2ccccn2)cc1 [bisacodyl, reference compound]
half-life at 1 μM [5]: 2 min

CNC1(c2ccccc2Cl)CCCCC1=O (centres unmarked) [ketamine]
EC50 (BKCa channels): ~25000 nM | Effect on VSN16R relaxation of methoxamine-evoked contraction (rat mesenteric artery [6]): can inhibit the mechanism of action of VSN16R

Cc1ncc2n1-c1ccc(Cl)cc1C(c1ccccc1F)=NC2 [midazolam, reference compound]
half-life at 1 μM [7]: 17 min
